According to patent US9849174B2, “Methods and compositions related to immunogenic fibrils” (The Board of Regents of the University of Texas System, priority 2009, dated 2017):
“Also recorded” adds a separate entry of the source.

How the values were obtained:
mouse myocardium = conditions: in vivo; cited from earlier work
rat myocardium = conditions: in vivo; cited from earlier work
[1] = ranges: high and low values among three batches for each peptide
Experimental: Endotoxin levels of all formulations were tested using a Limulus Amebocyte Lystae (LAL) chromogenic end point assay (Lonza, USA).
To account for batch-to-batch variability three different sets of peptides were synthesized for immunizing mice.

[2] = molecular target: T1, streptavidin-conjugated gold particles (Streptomyces avidinii, UniProt P22629); assay: Streptavidin-gold labelling of fibrils imaged by TEM; format: binding; conditions: 5 nm streptavidin-conjugated gold
T1 construct: purchased Sigma
T1 sequence (P22629 25-183): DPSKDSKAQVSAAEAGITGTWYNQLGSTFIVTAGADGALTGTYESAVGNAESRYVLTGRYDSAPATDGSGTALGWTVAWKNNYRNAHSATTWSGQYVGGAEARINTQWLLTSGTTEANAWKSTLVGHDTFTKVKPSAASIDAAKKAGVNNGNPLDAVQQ
Text: The availability of the OVA epitope on the surface of O-Q11 nanofibers was confirmed by TEM and by ELISA. To label epitopes in TEM samples, an N-terminally biotinylated O-Q11 was synthesized with a single biotin tag directly adjacent to the OVA sequence. This biotinylated peptide produced fibrils that appeared morphologically similar to O-Q11 (FIG. 2D). Five-nanometer streptavidin-conjugated gold particles were then used to probe epitope availability on the fibril surface, with unmodified Q11 serving as a negative control. […] To confirm this finding and to quantify the availability of the entire epitope, ELISA was employed. Plates coated with OVA and O-Q11 peptides were probed with antisera from mice immunized with OVA, either with or without complete Freund's adjuvant (CFA).
Transmission Electron Microscopy. Peptides were dissolved in deionized water and mixed 6:1 with PBS to produce working peptide concentrations of 330 μM. After fibrillizing for 4h, peptides were applied to 400 mesh gold grids with carbon support films, negative-stained with 1% uranyl acetate, and imaged on a Tecnai F30 TEM. For gold staining, prior to negative-staining grids were placed upside-down on a droplet of blocking solution (0.2% acetylated BSA, 0.1% gelatin from cold water fish skin in PBS) for 5 min, then for 2 h on a droplet of 5 nm colloidal gold conjugated to streptavidin (Sigma). […]

[3] = test system: primary human endothelial cells; conditions: cited from earlier work
CFSE labeled OTII cells = assay: Adoptive transfer of CFSE-labeled OTII T cells and immunization; format: in vivo, mice; conditions: 100 nmol s.c., five days after immunization, spleen and lymph nodes
Experimental: Antibody responses to self-assembled peptides are T cell-dependent. […] To determine the requirement for T cells, an adoptive T cell transfer assay was performed. Specifically, mice were injected with CFSE labeled […] cells, which express receptors for the H-2^b restricted OVA epitope. Antigen-mediated proliferation causes a decrease in the CFSE intensity which can be detected by flow cytometry.
Adoptive Transfer of T cells OTII transgenic mice on C57BL/6 background, whose T cells recognize the OVA peptide and carry a marker to distinguish them from naïve T cells from B6 mice (CD90.1 congenic). In vivo CD4+ T cell proliferation was analyzed after adoptive transfer into mice and immunization with the peptides. Briefly, splenocytes and lymph nodes of OTII+ C57BL/6 mice were processed into a single cell suspension and enriched for CD4+ T cells, by negative magnetic separation (Miltenyi Biotec). […] After staining, cells were washed twice with FACS buffer and samples were run on the LSR-II (BD Biosciences, NJ) flow cytometer and analyzed for evidence of proliferation as indicated by dilution of CFSE intensity using. FlowJo cytometry analysis software (Tree Star, OR) was used to analyze and quantify the results. […]

mice = conditions: mouse, in vivo; cited from earlier work
C57BL/6 mice = assay: Subcutaneous immunization of mice, serum antibody titers and isotypes by ELISA (Example 1); format: in vivo
Experimental: To investigate how fibrillization affected the immunogenicity of OVA, C57BL/6 mice were immunized subcutaneously with the different peptides and boosted with additional peptide at 28 days (see methods). Serum was collected seven days after the boost, and levels of various immunoglobulins were measured.
Immunizations. […] Stock solutions were then diluted in sterile, endotoxin-free PBS to working concentrations. […] CFA-adjuvanted groups received the same volume and total peptide dose, prepared by emulsifying peptide/PBS solutions 1:1 in CFA. […] CFA groups were boosted in incomplete Freund's adjuvant (IFA). Mice receiving mixtures of Q11 and OVA received 100 nmol of each peptide in the first injection and 50 nmol of each in the second. Seven days after the boost, the mice were sacrificed, and sera and spleens were harvested.
Determination of antibody titers. High-binding ELISA plates (eBioscience) were coated with either 20 μg/mL peptide in PBS or PBS alone (for uncoated background subtraction) overnight at 4° C. […] To determine titers for each antiserum, background absorbance values from uncoated wells were subtracted from coated wells, and net absorbances were compared to cutoff values. The cutoff consisted of the mean plus three times the standard deviation of the negative control group (mice receiving OVA without adjuvant) for each corresponding dilution. Any sample dilutions having absorbances above this cutoff value were considered positive readings. The titer was considered as the highest dilution for which it and all lower dilutions had positive readings. If no positive dilutions were present the titer was considered to be 10^2. […] Antibody isotypes were analyzed similarly using a mouse monoclonal antibody kit containing goat anti-mouse IgG1, IgG2a, IgG2b, IgG3, and IgM (Sigma).

Substance	Tissue responses (mouse myocardium)	Tissue responses (rat myocardium)	Endotoxin [1]	Binding of streptavidin-gold to fibrils [2]	Cell death / cytotoxicity in primary cell cultures [3]	Transferred cells that proliferated (shift in CFSE intensity) (CFSE labeled OTII cells)	Antibody responses (mice)	Total IgG response (C57BL/6 mice; delivered in CFA)	Total IgG response (C57BL/6 mice; delivered with or without CFA)	Total IgG response (C57BL/6 mice; peptide in PBS without added adjuvant, s.c., boost day 28, serum 7 days after boost)
n-RARADADARARADADA-c [RAD16-II]	Negligible tissue responses	Negligible tissue responses	–	–	–	–	–	–	–	–
Ac-QQKFQFQFEQQ-NH2 [Peptide Q11, Ac-QQKFQFQFEQQ-Am]	–	–	0.024-0.098 EU/mL	negligible numbers of particles; also recorded: did not bind streptavidin-gold	did not induce cell death	negligible shift in CFSE intensity	little to no antibody responses	non-immunogenic even in CFA	did not raise any detectable IgG	did not elicit a response
